The test system of series [1] is human CD45+ cells (granulocytes-based progenitor cells). Briefly: Colony forming test on granulocytes-based myelopoiesis progenitor cells, human CD45+ bone marrow cells of humanized Tg-NOG mouse. The series is classed as cell-based. The conditions noted are these: for influence on the granulocytes-based progenitor cells in the bone marrow, human vs mouse: colony forming test, comparison hCD45+ vs mCD45+; for IC50: concentration at which formation of 50% of granulocyte-derived colonies is inhibited, read-out: IC50 (nM) hCD45+; for IC50 / IC90: cultured 16 days; for IC90: concentration at which formation of 90% of granulocyte-derived colonies is inhibited, read-out: IC90 (nM) hCD45+. An excerpt:
(§1) The mouse at week 14 after the transplantation of the hCD34^+ cells derived from the human cord blood was euthanized by removing the blood from the abdominal aorta under anesthesia of isoflurane. Then, the femur was collected. The femur was sterilely washed using the Iscove's Modified Dulbecco's Medium (IMDM, available from Life Technologies) to prepare a suspension of cells. The suspension of cells was passed through a nylon filter (pore size of 35 μm, Cell Strainer, available from BD Biosciences) to obtain a filtrate as a solution of the bone marrow cells. A portion of the solution of the bone marrow cells was subjected to FACS analysis to calculate a ratio between the human-derived leucocytes (hCD45^+) and the mouse-derived leucocytes (mCD45^+).
The human 45^+ cells were suspended in a methyl cellulose medium (MethoCult H4534, available from Stem cell technologies) so as to be 5×10^4 cells/1.1 mL/dish. Then, EHC was added at 0.14 nM, 0.4 nM, 1.2 nM, 3.7 nM, 11 nM, or 33 nM. Meanwhile, PTX was added at 0.12 nM, 0.4 nM, 1.1 nM, 3.3 nM, 10 nM, 30 nM, or 90 nM. The resultant was seeded in a dish and was cultured for 16 days at 37° C. under 5% CO2.
(§2) As the vehicle control, dimethyl sulfoxide (DMSO, final concentration of 0.002 v/v %) was used. For each concentration, two dishes were used.
(§3) After a period of the cultivation was completed, the number of the colonies derived from the granulocytes formed was counted and an average number of the colonies in each concentration was calculated. An average number of the colonies in the vehicle control was considered as 100%. The average number of the colonies in each concentration was considered as a relative value (IC50 and IC90). Here, the IC50 means a concentration at which formation of 50% of the colonies is inhibited and the IC90 means a concentration at which formation of 90% of the colonies is inhibited.
(§4) The collection, preparation, and cultivation of the bone marrow cells and the calculation of the percentage of inhibition of colony formation were performed in the same manner as in Example 3-1.
The human CD45^+ cells were exposed to nogitecan at an exposure concentration of 0.41 nM, 1.2 nM, 3.7 nM, 11.1 nM, 33.3 nM, or 100 nM. Meanwhile, the other human CD45^+ cells were exposed to oxaliplatin at an exposure concentration of 123 nM, 370 nM, 1,111 nM, 3,333 nM, 10,000 nM, or 30,000 nM.
(§5) A physiological saline solution was used for the vehicle control of nogitecan and a distilled water was used for the vehicle control of oxaliplatin.
(§6) An average number of the colonies in the vehicle control was considered as 100%. The average number of the colonies in each concentration was considered as a relative value (IC50 and IC90). Here, the IC50 means a concentration at which formation of 50% of the colonies is inhibited and the IC90 means a concentration at which formation of 90% of the colonies is inhibited.

Series [2] deals with mouse CD45+ cells (granulocytes-based progenitor cells). Briefly: Colony forming test on granulocytes-based myelopoiesis progenitor cells, mouse CD45+ bone marrow cells of humanized Tg-NOG mouse. To be noted: cultured 8 days; for IC50: concentration at which formation of 50% of granulocyte-derived colonies is inhibited, read-out: IC50 (nM) mCD45+; for IC90: concentration at which formation of 90% of granulocyte-derived colonies is inhibited, read-out: IC90 (nM) mCD45+. In kind it is cell-based.
Description: as §1
The mouse CD45^+ cells were suspended in a methyl cellulose medium (available from MethoCult GF M3534, Stem cell technologies) so as to be 2×10^4 cells/1.1 mL/dish. Then, EHC (1.2 nM, 3.7 nM, 11 nM, 33 nM, 100 nM, or 300 nM) was added. Meanwhile, PTX (0.12 nM, 0.4 nM, 1.1 nM, 3.3 nM, 10 nM, 30 nM, or 90 nM) was added. The resultant was seeded in a dish and was cultured for 8 days at 37° C. under 5% CO2.
as §2, §3, §4
The mouse CD45^+ cells were exposed to nogitecan at an exposure concentration of 3.7 nM, 11.1 nM, 33.3 nM, 100 nM, 300 nM, or 900 nM. Meanwhile, the other mouse CD45^+ cells were exposed to oxaliplatin at an exposure concentration of 13.7 nM, 41.2 nM, 123 nM, 370 nM, or 1,111 nM.
as §5, §6

Series [3] relates to mouse-derived leucocytes (mCD45+) and mouse-derived granulocytes (mGr-1+). In kind it is in vivo. The conditions noted are these: oxaliplatin 20 mg/kg single intravenous. As for the experimental part: (§7) Six-week-old Tg-NOG mice (24 females) were irradiated with X-rays of 2.5 Gy. After a period of from 3 hours to 4 hours, the CD34^+ cells derived from the human cord blood were transplanted at 40,000 cells/body. At 5 week after the transplantation, the peripheral blood was collected from the orbital sinus under anesthesia of isoflurane. Engraftment thereof in the peripheral blood was confirmed.
(§8) Eleven mice suitable for the evaluation were selected and divided into the control group (5 mice) and the oxaliplatin administration group (6 mice). The mice in the control group received a 5 w/v % glucose solution from the tail vein through single intravenous administration. Meanwhile, two mice of the 6 mice in the oxaliplatin administration group received oxaliplatin at 20 mg/kg (2 mg/mL, 10 mL/kg), another two mice in the oxaliplatin administration group received oxaliplatin at 30 mg/kg (3 mg/mL, 10 mL/kg), and the other two mice in the oxaliplatin administration group received oxaliplatin at 40 mg/kg (4 mg/mL, 10 mL/kg) from the tail vein through single intravenous administration. Regarding assignment of the animals, the animals were grouped so that an average value of the number of the human leucocytes and that of the number of the human granulocytes were almost the same.
(§9) The peripheral blood was collected from the orbital sinus under anesthesia of isoflurane at day 4, day 7, day 14, day 17, day 21, and day 28 after the administration. Then, the number of the leucocytes in the peripheral blood was measured with FACS. The animals administered at 30 mg/kg and the animals administered at 40 mg/kg died by day 7 after the administration.

Series [4] concerns human-derived leucocytes (hCD45+) and human-derived granulocytes (hCD66b+). The series is classed as in vivo. To be noted: oxaliplatin 20 mg/kg single intravenous. As for the experimental part: as §7, §8, §9
For a further series, the system named is Tg-NOG mouse. Briefly: Survival and general condition of humanized Tg-NOG mice after single intravenous administration. The series is classed as in vivo. As for the experimental part: as §7, §8, §9
[5] abbreviates: Homo sapiens, Bone marrow cell, 384 h.
The mark [6] stands for this setting: Mus musculus, Bone marrow cell, 192 h.

A word on the IC50: it is the concentration at which inhibition is half-maximal. As usually defined, the IC90 is the concentration at which the effect reaches the 90% level.

Where two headings read alike, the source gives them in different places.

Turning to `CCc1c2c(nc3ccc(O)cc13)-c1cc3c(c(=O)n1C2)COC(=O)[C@]3(O)CC` [EHC, 7-Ethyl-10-hydroxycamptothecin], in series [1], the “influence on the granulocytes-based progenitor cells in the bone marrow, human vs mouse” value (“influence … vs mouse” below) is reported as “higher in the human than in the mouse”; the IC50 came to 11.3 nM; the IC90 came to 12.9 nM. In addition, in series [2], the IC50 was 106 nM and the IC90 was found to be 122 nM.

In the case of `CC[C@@]1(O)C(=O)OCc2c1cc1n(c2=O)Cc2cc3c(CN(C)C)c(O)ccc3nc2-1` [Nogitecan, nogitecan], the results for the IC50 in series [1] (setting [5]) and in series [2] (setting [6]) were 8.7 nM and 142 nM, respectively. The IC90 in series [1] (setting [5]) is 24.3 nM; in series [2] (setting [6]), 305 nM. In addition, the “influence … vs mouse” value in series [1] is recorded as “higher in the human than in the mouse”.

`O=C1[O][Pt]2([NH][C@@H]3CCCC[C@H]3[NH]2)[O]C1=O` [Oxaliplatin, oxaliplatin]: in series [1], the “influence … vs mouse” value is listed as “higher in the mouse than in the human”; the IC50 worked out at 2770 nM; the IC90 was found to be 4660 nM. In addition, the “change of mouse-derived leucocytes (mCD45+) and mouse-derived granulocytes (mGr-1+)” value in series [3] is “considerably decreased”. For the same compound, in series [4], the “change of human leucocytes in peripheral blood” value is on record as “no considerable reduction” and the “day from which tendency of recovering of human-derived granulocytes was presented” value was no less than 7 days. Further, the “change of human-derived granulocytes” value in series [4] (day 4 after the administration) was “slightly decreased”. Besides, the “difference between species: influence on the reduction in the leucocytes” value in series [4] (human vs mouse leucocytes) is “more strongly developed in the human than in the mouse”. Also, the “general condition of animals” value with Tg-NOG mouse (oxaliplatin 20 mg/kg single intravenous, day 17 after the administration) was “moribund condition”. Besides, in the series with Tg-NOG mouse (oxaliplatin 30 mg/kg single intravenous), the “death of animals, day after the administration” value is no more than 7 days. Besides, in the series on Tg-NOG mouse (oxaliplatin 40 mg/kg single intravenous), the “death of animals, day after the administration” value was no more than 7 days. Further, in series [2], the concentration for half-maximal inhibition (IC50) is 434 nM and the IC90 came to 846 nM.

With `CC(=O)O[C@H]1C(=O)[C@@]2(C)[C@H]([C@H](OC(=O)c3ccccc3)[C@]3(O)C[C@H](OC(=O)[C@H](O)[C@@H](NC(=O)c4ccccc4)c4ccccc4)C(C)=C1C3(C)C)[C@]1(OC(C)=O)CO[C@@H]1C[C@@H]2O` [PTX, paclitaxel], in series [1] (setting [5]), the IC50 was found to be 83.9 nM and the IC90 is 84.5 nM. In addition, in series [1], the “influence … vs mouse” value is “almost the same between the human and the mouse”. Also, in series [2] (setting [6]), the IC50 came out at 71.2 nM and the IC90 is 87.5 nM.

For the origin of these results see patent US20180289840A1, “Method for Evaluating Hematological Toxicity of Drug Under Evaluation, and Model for Evaluating Hematological Toxicity of Drug Under Evaluation” (Central Institute for Experimental Animals, priority 2015, published 2018).
